What all share (assay): relative viability (nuclei count vs DMSO), 5 days (fraction); higher = more cells survive
Compound in one experiment: CN(C)C(=N)NC(=N)N [Metformin]
Summed up:
(§1)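 Five library-drug doses spaced by √10 were pinned onto vehicle-anchored 1536-well plates of lung cancer cell lines that had been kept overnight at 37 °C. Cells went 5 days without medium change, then were fixed, permeabilised and Hoechst-stained together, imaged at 4× and counted by MetaXpress. Viability is the ratio of treated-well to vehicle-well nuclei, taken as a median over plates. Plates required control CV below 25% and at least one doubling.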

Compound in another experiment: N#CC1(c2ccc(NC(=O)c3cccnc3NCc3ccncc3)cc2)CCCC1 [Apatinib]
Summed up:
as §1

Compound in the experiment “Apatinib + Navitoclax”: N#CC1(c2ccc(NC(=O)c3cccnc3NCc3ccncc3)cc2)CCCC1 [Apatinib] + CC1(C)CCC(c2ccc(Cl)cc2)=C(CN2CCN(c3ccc(C(=O)NS(=O)(=O)c4ccc(N[C@H](CCN5CCOCC5)CSc5ccccc5)c(S(=O)(=O)C(F)(F)F)c4)cc3)CC2)C1 [Navitoclax] (partner 0.5 µM)
Summed up:
(§2)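 Lung cancer cell lines in 1536-well plates were dosed by pin tool the day after seeding, either with one drug alone or with a fixed anchor-drug dose plus five library-drug doses (not always all listed) in √10 steps. After 5 days, cells were fixed and their nuclei stained in one step (final 0.05% Triton X-100, 1% formaldehyde, 1 ug/ml Hoechst), then counted on 4× images. Relative viability is the nuclei count in treated wells divided by that in vehicle wells. Values are medians of duplicate plates.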

Compound in the experiment “Metformin + Trametinib”: CN(C)C(=N)NC(=N)N [Metformin] + CC(=O)Nc1cccc(-n2c(=O)n(C3CC3)c(=O)c3c(Nc4ccc(I)cc4F)n(C)c(=O)c(C)c32)c1 [Trametinib] (partner 0.02 µM)
Summed up: as §2

Take NCI-H2347: the relative viability with Metformin (10 µM) stood at 0.918; with Metformin (31.62 µM) it was 1.05; with Metformin (100 µM), 0.969; with Metformin (316.23 µM), 0.944; in the experiment with Metformin (1000 µM), 1.1; in the experiment with Apatinib (0.08 µM), 1.03. Further, the relative viability with Apatinib (0.253 µM) is 0.964; with Apatinib (0.8 µM), 1.03; in the experiment with Apatinib (2.53 µM), 0.858; with Apatinib (8 µM), 0.933; in the experiment with Apatinib + Navitoclax (first compound 0.08 µM) it was 0.783; in the experiment with Apatinib + Navitoclax (first compound 0.253 µM), 0.698. Moreover, the relative viability was 0.948 with Apatinib + Navitoclax (first compound 0.8 µM); 0.728 in the experiment with Apatinib + Navitoclax (first compound 2.53 µM); 0.74 with Apatinib + Navitoclax (first compound 8 µM); 0.291 in the experiment with Metformin + Trametinib (first compound 10 µM); 0.289 in the experiment with Metformin + Trametinib (first compound 31.62 µM); 0.26 with Metformin + Trametinib (first compound 100 µM). For the same cell line, the figures for the relative viability with Metformin + Trametinib (first compound 316.23 µM) and with Metformin + Trametinib (first compound 1000 µM) were 0.265 and 0.258, respectively.

For the cell line PC-14, the relative viability stood at 1.01 in the experiment with Metformin (10 µM); 1.09 in the experiment with Metformin (31.62 µM); 0.997 in the experiment with Metformin (100 µM); 0.971 in the experiment with Metformin (316.23 µM); 0.944 with Metformin (1000 µM); 1.03 in the experiment with Apatinib (0.08 µM). For the same cell line, the relative viability turned out to be 1.05 with Apatinib (0.253 µM); 0.829 in the experiment with Apatinib (0.8 µM); 0.968 with Apatinib (2.53 µM); 0.956 in the experiment with Apatinib (8 µM); 1.04 with Apatinib + Navitoclax (first compound 0.08 µM); 0.968 with Apatinib + Navitoclax (first compound 0.253 µM). For the same cell line, the relative viability with Apatinib + Navitoclax (first compound 0.8 µM) was determined as 0.967; with Apatinib + Navitoclax (first compound 2.53 µM), 0.986; in the experiment with Apatinib + Navitoclax (first compound 8 µM) it was 0.937; in the experiment with Metformin + Trametinib (first compound 10 µM) it was 0.746; in the experiment with Metformin + Trametinib (first compound 31.62 µM), 0.666; in the experiment with Metformin + Trametinib (first compound 100 µM), 0.767. In addition, the relative viability in the experiment with Metformin + Trametinib (first compound 316.23 µM) came to 0.686; with Metformin + Trametinib (first compound 1000 µM), 0.575.

On to IA-LM, for which the relative viability in the experiment with Metformin (10 µM) worked out at 0.982; in the experiment with Metformin (31.62 µM) it was 1.16; with Metformin (100 µM), 1.15; with Metformin (316.23 µM), 1.07; in the experiment with Metformin (1000 µM), 1.15; with Apatinib (0.08 µM) it was 0.955. Besides, the relative viability with Apatinib (0.253 µM) was determined as 0.9; with Apatinib (0.8 µM) it was 0.994; with Apatinib (2.53 µM), 0.694; with Apatinib (8 µM), 0.535; with Apatinib + Navitoclax (first compound 0.08 µM), 0.947; with Apatinib + Navitoclax (first compound 0.253 µM) it was 0.709. In addition, the relative viability with Apatinib + Navitoclax (first compound 0.8 µM) is 0.633; with Apatinib + Navitoclax (first compound 2.53 µM) it was 0.352; with Apatinib + Navitoclax (first compound 8 µM) it was 0.208.

On to NCI-H727, for which the relative viability stood at 1.04 with Metformin (10 µM); 1.06 with Metformin (31.62 µM); 1.13 with Metformin (100 µM); 0.688 with Metformin (316.23 µM); 1.16 in the experiment with Metformin (1000 µM); 1.08 with Apatinib (0.08 µM). The relative viability with Apatinib (0.253 µM) is 0.879; in the experiment with Apatinib (0.8 µM) it was 0.937; with Apatinib (2.53 µM), 0.77; with Apatinib (8 µM), 0.843; in the experiment with Apatinib + Navitoclax (first compound 0.08 µM) it was 0.465; with Apatinib + Navitoclax (first compound 0.253 µM) it was 0.552. Moreover, the relative viability in the experiment with Apatinib + Navitoclax (first compound 0.8 µM) was determined as 0.384; with Apatinib + Navitoclax (first compound 2.53 µM), 0.425; with Apatinib + Navitoclax (first compound 8 µM) it was 0.531; with Metformin + Trametinib (first compound 10 µM), 0.404; in the experiment with Metformin + Trametinib (first compound 31.62 µM), 0.369; with Metformin + Trametinib (first compound 100 µM), 0.41. For the same cell line, the relative viability in the experiment with Metformin + Trametinib (first compound 1000 µM) stood at 0.349.

NCI-H1975: the relative viability in the experiment with Metformin (10 µM) is 1.06; with Metformin (31.62 µM), 1.16; in the experiment with Metformin (100 µM), 1.09; with Metformin (316.23 µM), 1.12; in the experiment with Metformin (1000 µM) it was 1.21; in the experiment with Apatinib (0.08 µM), 0.97. Further, the relative viability turned out to be 0.981 with Apatinib (0.253 µM); 0.91 with Apatinib (0.8 µM); 0.844 with Apatinib (2.53 µM); 0.943 in the experiment with Apatinib (8 µM); 1.19 in the experiment with Apatinib + Navitoclax (first compound 0.08 µM); 1.15 in the experiment with Apatinib + Navitoclax (first compound 0.253 µM). For the same cell line, the relative viability was determined as 1.04 in the experiment with Apatinib + Navitoclax (first compound 0.8 µM); 0.869 in the experiment with Apatinib + Navitoclax (first compound 2.53 µM); 0.852 in the experiment with Apatinib + Navitoclax (first compound 8 µM); 0.356 with Metformin + Trametinib (first compound 10 µM); 0.325 in the experiment with Metformin + Trametinib (first compound 31.62 µM); 0.387 with Metformin + Trametinib (first compound 100 µM). The figures for the relative viability with Metformin + Trametinib (first compound 316.23 µM) and in the experiment with Metformin + Trametinib (first compound 1000 µM) were 0.326 and 0.373, respectively.

Take NCI-H2085: the relative viability in the experiment with Metformin (10 µM) worked out at 0.977; with Metformin (31.62 µM), 0.939; in the experiment with Metformin (100 µM), 0.956; in the experiment with Metformin (316.23 µM) it was 0.977; with Metformin (1000 µM), 0.991; with Apatinib (0.08 µM), 0.986. Also, the relative viability with Apatinib (0.253 µM) is 0.979; with Apatinib (0.8 µM) it was 0.953; with Apatinib (2.53 µM) it was 0.92; with Apatinib (8 µM) it was 0.971; in the experiment with Apatinib + Navitoclax (first compound 0.08 µM), 1.18; in the experiment with Apatinib + Navitoclax (first compound 0.253 µM), 1.23. Further, the relative viability in the experiment with Apatinib + Navitoclax (first compound 0.8 µM) amounted to 1.18; with Apatinib + Navitoclax (first compound 2.53 µM), 1.05; with Apatinib + Navitoclax (first compound 8 µM) it was 0.949; with Metformin + Trametinib (first compound 10 µM), 0.541; in the experiment with Metformin + Trametinib (first compound 31.62 µM), 0.58; with Metformin + Trametinib (first compound 100 µM), 0.446. For the same cell line, the relative viability in the experiment with Metformin + Trametinib (first compound 316.23 µM) was determined as 0.542; with Metformin + Trametinib (first compound 1000 µM), 0.631.

As to Calu-6, the relative viability amounted to 0.899 with Metformin (10 µM); 0.961 with Metformin (31.62 µM); 0.953 with Metformin (100 µM); 0.931 in the experiment with Metformin (316.23 µM); 0.964 with Metformin (1000 µM); 1.01 with Apatinib (0.08 µM). Besides, the relative viability with Apatinib (0.253 µM) amounted to 1.01; with Apatinib (0.8 µM) it was 0.908; in the experiment with Apatinib (2.53 µM), 0.868; in the experiment with Apatinib (8 µM) it was 0.799; in the experiment with Apatinib + Navitoclax (first compound 0.08 µM) it was 0.791; in the experiment with Apatinib + Navitoclax (first compound 0.253 µM), 0.919. Moreover, the relative viability in the experiment with Apatinib + Navitoclax (first compound 0.8 µM) came to 0.751; with Apatinib + Navitoclax (first compound 2.53 µM) it was 0.648; in the experiment with Apatinib + Navitoclax (first compound 8 µM), 0.626.

The values above are taken from the supplement of paper PMC10307832.
